For assay [1], the target named is T1, ELIC (Dickeya chrysanthemi, UniProt P0C7B7, INS163G).
T1 construct: expressed in transfected cells; host or cells: Xenopus laevis oocytes injected with cRNA
Nature of the assay: cell-based. Format: cell-based, Erwinia chrysanthemi. Here is the method:
Xenopus laevis oocyte-positive females were purchased from NASCO (Fort Atkinson, Wisconsin, USA) and maintained according to standard methods.
(§1) The ELIC sequence (Genbank accession number POC7B7) was purchased from Genscript as a synthetic gene with optimized codon usage for expression in Escherichia coli. […] Stage V and VI oocytes were injected with 20 ng cRNA, and currents recorded 1–3 days post-injection.

For assay [2], the target named is RDL, a GABA-activated insect receptor. The arrangement: method as in McGonigle and Lummis, 2010. The note with it: ref McGonigle and Lummis, 2010, cited from earlier work.
For assay [3], the target named is T2, ELIC (Dickeya chrysanthemi, UniProt P0C7B7).
T2 sequence (P0C7B7 8-321): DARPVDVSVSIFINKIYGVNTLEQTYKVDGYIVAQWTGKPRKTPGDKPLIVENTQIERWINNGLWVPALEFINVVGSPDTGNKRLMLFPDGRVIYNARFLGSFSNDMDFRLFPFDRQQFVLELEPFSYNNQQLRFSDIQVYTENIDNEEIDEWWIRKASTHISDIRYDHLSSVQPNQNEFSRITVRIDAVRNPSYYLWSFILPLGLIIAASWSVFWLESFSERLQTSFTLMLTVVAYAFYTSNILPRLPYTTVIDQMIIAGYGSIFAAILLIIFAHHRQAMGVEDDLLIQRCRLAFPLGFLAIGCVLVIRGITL
The experiment in a line: cell-based. Format: cell-based, Erwinia chrysanthemi. Here is the method: Xenopus laevis oocyte-positive females were purchased from NASCO (Fort Atkinson, Wisconsin, USA) and maintained according to standard methods. Harvested stage V–VI Xenopus oocytes were washed in four changes of ND96 (96 mM NaCl, 2 mM KCl, 1 mM MgCl2, 5 mM HEPES, pH 7.5), de-folliculated in 1.5 mg ml^−1 collagenase Type 1A for approximately 2 h, washed again in four changes of ND96 and stored in ND96 containing 2.5 mM sodium pyruvate, […], 0.7 mM theophylline.
as §1

The target in assay [4] is T2, ELIC. The experiment in a line: Inhibition of cysteamine-induced ELIC responses. Format: cell-based, Erwinia chrysanthemi. The note with it: data not shown.
In assay [5] the test system is GLIC. Set-up: method as in Alqazzaz et al., 2011. The note with it: ref Alqazzaz et al., 2011, cited from earlier work; for inhibition of GLIC (yes/no): comparison ELIC vs GLIC.

pEC50, pIC50: −log10 of the molar value. Where two headings read alike, the source gives them in different places.

For orientation: pEC50 means −log10 of the EC50, conventionally taken in molar units. One may read the pIC50 as −log10 of the IC50, conventionally taken in molar units.

With `NCCCCC(=O)O` [5-aminovaleric acid], the “concentration required to activate ELIC” value in assay [1] was more than 10 mM. For the same compound, in assay [2] (RDL), the pEC50 is 2.96 and the Rmax is 0.85.

In turn, `C=C(C)[C@@H]1[C@H]2OC(=O)[C@@H]1[C@]1(O)C[C@H]3O[C@]34C(=O)O[C@H]2[C@]14C` [Picrotoxinin] showed a nH in assay [3] (Hill coefficient of inhibition curve) of 1.2 ± 0.6. For the same compound, the pIC50 in assay [3] (IC50, wild type ELIC, at the GABA EC50 (1.6 mM)) was 4.02; in assay [3] (pIC50 (Mean ± SEM), wild type ELIC, at the GABA EC50 (1.6 mM)), 4.06. The “inhibition of ELIC (yes/no)” value in assay [3] (comparison ELIC vs GLIC) is given as “inhibiting both receptors”. In addition, the “inhibition of cysteamine-induced responses compared to inhibition of GABA-induced responses” value in assay [4] is reported as “no significant differences”. Besides, in assay [5], the “inhibition of GLIC (yes/no)” value was “inhibiting both receptors”.

On to `CC(N)C12CC3CC(CC(C3)C1)C2` (stereo not shown) [Rimantadine], for which, in assay [3], the “inhibition of ELIC (yes/no)” value is “inhibiting both receptors” and the nH worked out at 1.0 ± 0.2. Also, the negative logarithm of the IC50 (pIC50) in assay [3] (IC50) is 4.27. The compound further gave a pIC50 in assay [3] (pIC50 (Mean ± SEM)) of 4.27. In addition, in assay [4], the “inhibition of cysteamine-induced responses compared to inhibition of GABA-induced responses” value is reported as “no significant differences”. In addition, the “inhibition of GLIC (yes/no)” value in assay [5] is “inhibiting both receptors”.

Take `O=S1OC[C@@H]2[C@H](CO1)[C@@]1(Cl)C(Cl)=C(Cl)[C@]2(Cl)C1(Cl)Cl` (stereo partly drawn) [α-endosulfan]: the nH in assay [3] was 0.7 ± 0.2. Besides, the pIC50 in assay [3] (IC50), in assay [3] (pIC50 (Mean ± SEM)) and in assay [5] (GLIC) was 4.77 throughout.

`O=C(O)CCCO` [γ-hydroxybutyric acid]: in assay [1], the “concentration required to activate ELIC” value is more than 10 mM. Besides, the “% of Rmax at 100 mM” value in assay [1] (100 mM, Rmax = maximal current relative to 10mM GABA) is recorded as 8.2 ± 3% of Rmax at 100 mM. In addition, the “effect on RDL” value in assay [2] is “no effect”.

(Values after PMC3430861, “The pharmacological profile of ELIC, a prokaryotic GABA-gated receptor” (Neuropharmacology, 2012).)
